Results as given in patent publication US5576296A, “Galanin antagonist” (priority 1991, dated 1996).

Test system: scopolamine-induced release of ACh
Assay: Microdialysis: scopolamine-induced release of ACh in vivo from rat ventral hippocampus
Details: scopolamine 0.3 mg/kg s.c. alone; peak (second) 20 min fraction; n=2
Method: 2) Galanin inhibits acetylcholine release, measured according to Fisone G., et al (Proc. Natl. Acad. Sci. vol 84, 1987, 7339-7343). By using substantially the same procedure as the cited Fisone G., et al, a peptide according to the invention, M15, is now shown to counteract the inhibitory effects of galanin on the scopolamine-induced release of acetylcholine in vivo.
Surgery and basic methodology. Experiments were carried out with female CD-COBS (Charles River, Como, Italy) rats, weighing 200-260 g. Animals were anesthetized with equitensin (1% pentobarbital, 4% chloral hydrate). […] The microdialysis probe extended 3 mm beyond the end of the guide cannula; it was perfused at a constant rate of 2 μl (min with Ringer's solution (NaCl, 147 mM; CaCl2, 2.2 mM and KCl, 4.0 mM), containing 10 μM physostigmine sulfate and adjusted to pH 7.0 with NaOH. The initial 40 min perfusate was discarded. Thereafter, perfusates were collected every 20 min during a total perfusion period of 260 min. At the end of the collection period, the samples were immediately frozen on solid CO2 and lyophilized. Acetylcholine (Ach) content was quantified by a specific radioenzymatic method described in detail by Consolo S., et al. (J. Neurochem. […]

CN1[C@@H]2C[C@@H](OC(=O)[C@H](CO)c3ccccc3)C[C@H]1[C@@H]1O[C@@H]12 [Scopolamine]
ACh release: 13.1 pmol
